Data set [1] deals with PDE7. Briefly: In vitro autoradiography of rat brain sections with [^11C]MTP38. Type of data set: binding, Sprague-Dawley rats. The procedure: (§1) In vitro autoradiography was performed using 20-μm-thick fresh-frozen brain sections derived from Sprague-Dawley rats and rhesus monkeys. The sections were preincubated for 10 min in 50 mM Tris-HCl buffer (pH 7.4) at room temperature. These samples were then incubated for 60 min at room temperature in fresh buffer containing [^11C]MTP38 (2 nM) with or without unlabeled MTP38 (10 μM), MTP-X (4 μM), or MT-3014 (40 nM). The concentrations of MTP-X and MT-3014 were more than 400-fold of reported IC50 values of these agents. After the incubation, the brain sections were immersed twice in cold buffer for 3 min, dipped in cold distilled water for 10 s, and dried with warm airflow. Then the sections were contacted with imaging plates (BAS-MS2025, Fujifilm, Tokyo, Japan) for 60 min. The imaging plates were scanned with an imaging plate reader (BAS5000, Fujifilm, Tokyo, Japan), and the images were analyzed with the MultiGuage software (ver. 3.0, Fujifilm, Tokyo, Japan).

The subject of data set [2] is PDE7. Briefly: In vitro autoradiography of monkey brain sections with [^11C]MTP38. It counts as binding, rhesus monkeys. As to conditions: 2 nM. The procedure:
as §1

The test system of data set [3] is PDE7. Kind of data set: PET imaging in rats with [^11C]MTP38. It counts as in vivo, Wistar rats. The procedure: Each rat was scanned multiple times with a shortest interval of 1 month. Rats were anesthetized with isoflurane (3% for induction and 2% for maintenance) throughout the experiment. The tail vein was cannulated for radioligand injection. Body temperature was maintained at around 37 °C using a heating pad. The head of the rat was fixed at the center of the field of view of an animal PET scanner (microPET Focus220, Siemens Medical Solutions, Malvern, USA). A 90-min list-mode data acquisition was started simultaneously with intravenous administration of [^11C]MTP38. The list-mode data were sorted into 3D sinograms, which were then Fourier-rebinned into 2D sinograms (frames: 10 s × 6, 30 s × 8, 1 min × 5, 2 min × 10, and 5 min × 12). The sinograms were reconstructed with a filtered back-projection algorithm using a Hanning filter with a cut-off at the Nyquist frequency (0.5 mm^−1).
Along with baseline scans, we conducted blockade PET experiments according to the following pretreatment protocols: (1) unlabeled MTP38 (0.5 mg/kg) was administered intravenously at 2 min before radioligand injection, and (2) MTP-X (100 mg/kg) was administered orally at 1 h before radioligand injection.
PET images were co-registered manually onto the magnetic resonance (MR) template image. Details of co-registration were described elsewhere. Regions of interest (ROIs) were placed on the striatum as a target region and on the cerebellum (gray matter) as a reference region according to the expression of PDE7B mRNA in the rat brain [6], and time-activity curves (TACs) were generated for each ROI. Radioactivity in the brain was normalized with injected radioactivity and body weight, and expressed as standardized uptake value (SUV). Then the SUV ratio between the striatum and cerebellum was obtained to estimate the radioligand binding in the target region in baseline and blockade experiments.

Data set [4] has as its system PDE7. Kind of data set: PET imaging in monkeys with [^11C]MTP38. It counts as in vivo, rhesus monkeys. As to conditions: for Striatal BPND: MRTMo, cerebellar reference. The procedure: Each monkey underwent multiple PET scans with intervals longer than 2 weeks. The monkeys were given an intramuscular injection of 0.04 mg/kg of atropine sulfate at 1.5 h before radioligand injection. They were subsequently anesthetized with an intramuscular injection of ketamine (5 mg/kg) and xylazine (0.5 mg/kg), intubated, and kept anesthetized with 1–2% isoflurane. Heart rate, electrocardiogram, body temperature, blood oxygen saturation level, and end-tidal CO2 were monitored during the PET scan. The monkeys were placed on a bed in a supine position, and the head was fixed at the center of the field of view of a microPET scanner Focus220. A transmission scan was performed for about 20 min using a ^68Ge-^68Ga point source. A 90-min list-mode data acquisition was started simultaneously with intravenous administration of [^11C]MTP38 via a saphenous vein cannula. All list-mode data were sorted into 3D sinograms, which were then Fourier-rebinned into 2D sinograms (frames: 10 s × 6, 30 s × 8, 1 min × 5, 2 min × 10, and 5 min × 12). The images were corrected for attenuation and reconstructed with a filtered back-projection algorithm using a Hanning filter with a cut-off at the Nyquist frequency (0.5 mm^−1).
Along with baseline scans, we carried out blocking PET experiments according to the following pretreatment protocols: (1) unlabeled MTP38 was administered as an intravenous bolus (0.075 mg/kg) at 1 h before radioligand injection followed by continuous infusion at a rate of 0.3 mg/kg/h until the end of the PET scan, and (2) MTP-X (0.3–30 mg/kg) was administered orally at 2 or 6 h before radioligand injection.
(§2) PET scans for monkeys at baseline and following pretreatment with unlabeled MTP38, and 3, 10, 30 mg/kg of MTP-X were performed along with arterial blood sampling to obtain a metabolite-corrected input function. In total, 22 arterial blood samples were collected manually with heparinized syringes via a saphenous artery contralateral to the radioligand injection. Sampling was performed at 10, 20, 30, 40, 50, 60, 75, 90, 105, 120, 150, 180, and 210 s and at 4, 5, 10, 20, 30, 45, 60, 75, and 90 min after radioligand injection. Blood samples were then placed on ice and divided into two aliquots, one of which was centrifuged with a refrigerated centrifuge (15,000×g, 3 min, 4 °C) to obtain plasma.
PET images were co-registered onto the individual MR images. ROIs were placed on the prefrontal and medial frontal cortices, hippocampus, amygdala, striatum (caudate + putamen), nucleus accumbens, thalamus, cerebellum (gray matter), and brainstem. TACs in the baseline and blockade experiments were generated for each ROI.
Regional TACs were examined by several analytical methods to calculate the regional total distribution volume (VT), which represents the sum of non-specific and specific radioligand binding. Compartment model (1- or 2-tissue) and Logan’s graphical analyses were employed for describing the radioligand kinetics in the brain. The fractional blood volume was fixed at 0.05. For compartment model analyses, an optimal model was chosen on the basis of Akaike’s information criterion (AIC) and model selection criterion (MSC). For graphical analyses, an equilibration time t* was determined so that by the maximum error from the regression within the linear segment was considered to be 10% for each TAC. Time stability of VT was investigated by truncating the data duration stepwise from 90 min to 30 min. The VT values with or without pretreatment with a blocker were then compared. We also validated the use of the cerebellum as a reference tissue by this comparison, in addition to the autoradiographic findings, in monkey brain slices. The non-displaceable binding potential (BPND) was calculated by the original multilinear reference tissue model (MRTMO). t* was determined in the same manner as Logan’s graphical analysis. […]

Data set [5] can be described thus: Radiometabolite analysis of arterial plasma. The conditions noted are these: monkey; 90 min after injection. Type of data set: in vivo, rhesus monkeys. The procedure: as §2
Radioactivity in blood and plasma was measured with an auto-gamma counter (wizard 2480, PerkinElmer, Waltham, MA, USA). […] An aliquot of supernatant (< 1 mL) was injected into an HPLC system (JASCO, Tokyo, Japan) equipped with a radioactivity detector (column: CAPCELL PAK AQ, 5 μm, 10 × 250 mm; column temperature: room temperature; mobile phase: 45% CH3CN; flow rate: 6.0 mL/min). The fraction of the parent [^11C]MTP38 was calculated as a ratio of the peak area of MTP38 to the total area of peaks found on the radiochromatograms. Then, an arterial input function was determined by quantifying the metabolite-corrected arterial plasma radioactivity concentration.

In data set [6] the test system is PDE7. On the set-up: method as in PMID 26330158. As to conditions: living rodent brains; cited from earlier work.
The mark [7] stands for this setting: monkey, baseline, Logan's graphical analysis, means of two animals.

For `C[C@@H]1CC[C@H](C)N(c2nnc3c(N)ncc([11C]#N)n23)C1` [[^11C]MTP38], the “radioligand reactivity in the striatum” value with PDE7 [1] (2 nM) is given as “high radioligand reactivity in the striatum”. In the data set on PDE7 [2], the “radioligand reactivity in the striatum” value was “high radioligand reactivity in the striatum”. Further, the “striatum-to-cerebellum ratio of SUV” value in the data set with PDE7 [3] (baseline, plateau from 5 min) was approximately 1.5. Also, the “SUV in the striatum and cerebellum at 90 min” value in the data set with PDE7 [3] (iv, 90 min) is given as “below 1.0”. Moreover, in the data set with PDE7 [3] (iv, baseline), the “peak SUV in the striatum and cerebellum” value is listed as “exceeding 4.0”. Moreover, the “time of SUV peak after injection” value in the data set with PDE7 [3] (iv, striatum and cerebellum) is on record as not above 1 min. Further, the “Striatal BPND” value in the data set with PDE7 [4] (monkey #1, baseline) is reported as 0.409. For the same compound, the “Striatal BPND” value in the data set with PDE7 [4] (monkey #2, baseline) is on record as 0.287. For the same compound, in the data set on PDE7 [4] (setting [7]), the “Regional VT, AMY (amygdala)” value came out at 2.50 mL/cm^3; the “Regional VT, BS (brainstem)” value is 3.13 mL/cm^3; the “Regional VT, CB (cerebellum)” value was determined as 2.69 mL/cm^3; the “Regional VT, HIP (hippocampus)” value amounted to 2.38 mL/cm^3. In the data set on PDE7 [4] (setting [7]), the “Regional VT, MFC (medial frontal cortex)” value turned out to be 3.27 mL/cm^3; the “Regional VT, NAc (nucleus accumbens)” value was 2.97 mL/cm^3; the “Regional VT, PFC (prefrontal cortex)” value is reported as 2.93 mL/cm^3; the “Regional VT, STR (striatum)” value was determined as 3.59 mL/cm^3. Further, the “Regional VT, THA (thalamus)” value with PDE7 [4] (setting [7]) was 3.03 mL/cm^3. Further, in the data set with PDE7 [4] (monkey, some ROIs including the striatum, model failed to estimate VT), the “k3 (2-tissue compartment model)” value was less than 0.0001 min⁻¹. In addition, in the data set on PDE7 [4] (monkeys, iv), the “maximal SUV in brain” value is on record as approximately 5 and the “time of brain radioactivity peak after injection” value is 3 to 4 min. Besides, in data set [5], the “fraction of unmetabolized [^11C]MTP38 of total radioactivity in plasma” value was 27.2%.

As to `O=C1Nc2c(Cl)ccc(OCC[18F])c2C2(CCCCC2)N1` [[^18F]MICA-003], the in vivo metabolism result in the data set with PDE7 [6] is “rapid metabolic conversion to a brain-entering radiomolecule”.

Regarding `Cc1nc2ccc(F)cc2nc1-c1cc2nc(N3CC[C@@H](F)C3)cc(NCC(C)(C)O)n2n1` [MT-3014, reference compound], the “effect of blocker on striatal radioactivity of [^11C]MTP38” value in the data set with PDE7 [1] ([^11C]MTP38 2 nM, unlabeled MTP38 10 μM, MTP-X 4 μM, MT-3014 40 nM) is on record as “did not change the radioligand binding”.
